Here are results for five molecules from US20100190716A1, “USE OF A PLATELET FIBRINOGEN RECEPTOR HEXAPEPTIDE ANTAGONIST AND ALPHA-ENDORPHIN AS THERAPEUTIC AGENTS” (priority 2007, published 2010).

Where no end group is shown, it is not given here. [ ]: non-standard residue; d: D form. Hyp = O=C(O)[C@@H]1C[C@@H](O)CN1

The subject of one assay is HIV-1IIIB. In words: HIV-1 antiviral assay in CEM-SS cells (MTS readout). As to conditions: positive controls.
The subject of a further assay is HCMV strain AD169. In words: HCMV plaque formation assay in MRC-5 cells. As to conditions: for inhibition of HCMV plaque formation compared to virus control: 10 micrograms per ml, 7-10 days.
Another assay deals with Interleukin-5 (IL-5). The assay can be described thus: Th1/Th2 cytokine profiling assay, IL-5. It counts as cell-based, mouse. As to conditions: 10 micrograms per ml; Ovalbumin-restimulated Balb/c spleen cells, 72 hours. From the text: (§1) The Balb/c mice (originated in 1923, it is a popular strain and is used in many different research disciplines. Also classified as an inbred from the production of 20 or more successive brother-sister matings, the Balb/c mouse is albino and small in size) were immunized on Days 1, 15, and 29 with Ovalbumin (Ovalbumin is the main protein found in egg white, commonly used to stimulate an immunological reaction in test animals) in PBS (5 micrograms/injection). On day 50, spleens of the mice were harvested (3 weeks after last boost with Ovalbumin). […] Thereafter, additional Ovalbumin was added to the cells at 10 micrograms/ml for in vitro restimulation of the cells. 72 hours later, cell supernatants were harvested and assayed using the Becton Dickinson Mouse Th1/Th2 Cytokine CBA Kit. This kit can be used to measure Interleukin-2 (IL-2), Interleukin-4 (IL-4), Interleukin-5 (IL-5), Interferon-γ (IFN-γ), and Tumor Necrosis Factor-α (TNF-α) protein levels in a single sample. The kit performance has been optimized for analysis of physiologically relevant concentrations ([…] levels) of specific cytokine proteins in tissue culture supernatants and serum samples.

Assay [1] relates to Primary Human endothelial cells (HUVEC). In words: Endothelial cell migration assay. The format is cell-based. As to conditions: 10 micrograms per ml, 22 hours. The method, then: Endothelial cell migration is a prerequisite for the process of neo-vascularization or angiogenesis which is crucial for on-site recruitment of blood vessel formation. Primary Human endothelial cells (HUVEC) were seeded in insert chambers with 3 micrometer pore size of multi-transwell plate for 6 hours at 37° C. in Endothelial Cell Basal Medium (EBM) supplemented with 0.1% bovine serum albumin. Thereafter, designated concentration of testing peptides—10 micrograms per ml—was added in duplicate wells. The endothelia were allowed to migrate for 22 hours at 37° C., then, migrated cells were fixed and stained with Hoechst 33342 dye. Images of 3 fields per insert were taken and the number of migrated cells per field were quantified using the ImageProPlus software. Data were analyzed for the average number of the migrated cells and standard deviation of six data points for each treatment condition. Active test peptides against HUVEC migration was determined based on 50% inhibition of migrated cells as compared with the control. Statistic p values were computed using the Student's t-test.

Assay [2] relates to Human Peripheral Blood Mononuclear Cells (PBMC), B cell proliferation. The assay can be described thus: B cell proliferation assay (SAC plus Interleukin-2 stimulated PBMC, 3H-thymidine). As to conditions: 10 micrograms per ml; SAC plus IL-2 stimulated PBMC. It counts as cell-based. The method, then:
Human Peripheral Blood Mononuclear Cells (PBMC) were obtained from normal human donors. The B cell proliferation was induced by stimulation of the cells with the B cell mitogen Staphylococcus aureus Cowans I (SAC) plus Interleukin-2, either in the absence (positive proliferation control), or in the presence of test peptides—10 micrograms per ml—to examine their effects on the B cell response. 10^5/well PBMC were plated in 96-well microtiter plates and assayed in duplicate with the peptides. Cell cultures were incubated at 37° C. for 3 days in a 5% CO2 incubator and were thereafter pulsed with 1 microCi/well ^3H-thymidine for additional 12 hours of culture. At the end of incubation time, the plates were harvested and the cells counted by liquid scintillation for the incorporation of ^3H-thymidine as a measure of B cell proliferation.

The subject of the next assay is Interleukin-2 (IL-2). In words: Th1/Th2 cytokine profiling assay, IL-2. It counts as cell-based, mouse. As to conditions: 10 micrograms per ml; Ovalbumin-restimulated Balb/c spleen cells, 72 hours.
From the text: as §1

For the next assay, the system named is HUVEC. In words: Endothelial tube formation assay. It counts as cell-based, human. As to conditions: 10 micrograms per ml, 20 hours. The method, then:
The endothelial tube formation assay is based on the ability of endothelial cells to form three-dimensional capillary-like tubular structures when cultured on a gel of basement membrane extract. The endothelial tube formation assay represents a powerful model for studying inhibition and induction of angiogenesis. Pre-labeled HUVEC with Calcein AM were seeded in a 96-well culture plate coated with extracellular metrix (Chemicon international Cat. ECM625) and treated with test peptides—10 micrograms per ml—in full growth medium. Positive control was vehicle only. The endothelial cells were allowed to form tubes foe 20 hours and were then examined under an inverted fluorescent microscope. Duplicate wells for each treatment were photographed and quantitatively analyzed for an average tubule length using image analysis software ImageProPlus. Raw data were expressed as average tubule lengths in pixels ±standard deviation. Statistic p values were computed using the Student's t-test.

In a further assay the test system is Interferon-γ (IFN-γ). The assay can be described thus: Th1/Th2 cytokine profiling assay, IFN-γ. As to conditions: 10 micrograms per ml; Ovalbumin-restimulated Balb/c spleen cells, 72 hours. The format is cell-based, mouse.
From the text: as §1

In assay [3] the test system is Tumor Necrosis Factor-α (TNF-α). In words: Th1/Th2 cytokine profiling assay, TNF-α. It counts as cell-based, mouse. As to conditions: 10 micrograms per ml; Ovalbumin-restimulated Balb/c spleen cells, 72 hours.
From the text: as §1

The test system of the next assay is Interleukin-4 (IL-4). In words: Th1/Th2 cytokine profiling assay, IL-4. As to conditions: 10 micrograms per ml; Ovalbumin-restimulated Balb/c spleen cells, 72 hours. It counts as cell-based, mouse.
From the text: as §1

Assay [4] relates to hepatitis B virus (HBV) ayw strain. The assay can be described thus: HBV experimental assay system, secreted HBV DNA by TaqMan PCR in HepG2-2.2.15. It counts as cell-based. As to conditions: 10 micrograms per ml, HepG2-2.2.15, 6 days.

Regarding `Cc1cn([C@H]2C[C@H](N=[N+]=[N-])[C@@H](CO)O2)c(=O)[nH]c1=O` [AZT], the “antiviral activity of positive control compounds” value in the assay with HIV-1IIIB was “expected levels of antiviral activity”.
Turning to `Nc1nc(O)c2ncn(COC(CO)CO)c2n1` [Ganciclovir, reference compound], the “antiviral activity of positive control compound” value in the assay on HCMV strain AD169 (positive control, HCMV AD169) is “expected levels of antiviral activity”.
Consider `CC(C)(C)NC(=O)[C@@H]1CN(Cc2cccnc2)CCN1C[C@@H](O)C[C@@H](Cc1ccccc1)C(=O)N[C@H]1c2ccccc2C[C@H]1O` [indinavir], for which the “antiviral activity of positive control compounds” value in the assay on HIV-1IIIB is “expected levels of antiviral activity”.
As to PS[Hyp]GDW-OH [peptide 1], in the assay on Interleukin-5 (IL-5), the “IL-5 spleen cells; TH2 response (% of control)” value is given as 65.5 % of control. Also, in the assay on HCMV strain AD169, the “inhibition of HCMV plaque formation compared to virus control” value is reported as “did not inhibit”. For the same molecule, in [1], the “inhibition of the migration of human endothelial cells” value is listed as 39%. In addition, the “decrease of the proliferation of specifically stimulated human B-cells” value in assay [2] worked out at 20.9%. The “IL-2 spleen cells (% of control)” value with Interleukin-2 (IL-2) is 117.9 % of control. For the same molecule, in the assay on HUVEC, the “inhibition of the tube formation of human endothelial cells” value was “did not inhibit”. Moreover, the “IFNγ spleen cells; TH1 response (% of control)” value with Interferon-γ (IFN-γ) is listed as 63.7 % of control. Besides, in [3], the “TNF-a spleen cells; TH1 response (% of control)” value is 96.0 % of control. Besides, the “IL-4 spleen cells; TH2 response (% of control)” value in the assay with Interleukin-4 (IL-4) is given as 0.0 % of control. The “inhibition of HBV replication on tested liver cells” value in [4] was “no effect”.
Take “Tyr-Gly-Gly-Phe-Met-Thr-Ser-Glu-Lys-Ser-Gln-Thr-Pro-Leu-Val-Thr-OH (YGGFMTSEKSQTPLVT-OH) [peptide 2, Alpha-Endorphin]”: in the assay on Interleukin-5 (IL-5), the “IL-5 spleen cells; TH2 response (% of control)” value was 53.0 % of control. Further, the “inhibition of HCMV plaque formation compared to virus control” value with HCMV strain AD169 is recorded as “did not inhibit”. The “inhibition of the migration of human endothelial cells” value in assay [1] is recorded as 31%. Also, the “decrease of the proliferation of specifically stimulated human B-cells” value in [2] amounted to 12.0%. Also, the “IL-2 spleen cells (% of control)” value in the assay on Interleukin-2 (IL-2) is 0.0 % of control. Moreover, the “inhibition of the tube formation of human endothelial cells” value in the assay with HUVEC is recorded as “did not inhibit”. Besides, the “IFNγ spleen cells; TH1 response (% of control)” value with Interferon-γ (IFN-γ) is given as 68.6 % of control. For the same molecule, the “TNF-a spleen cells; TH1 response (% of control)” value in assay [3] was 93.1 % of control. Also, in the assay with Interleukin-4 (IL-4), the “IL-4 spleen cells; TH2 response (% of control)” value was 0.0 % of control. In addition, in assay [4], the “inhibition of HBV replication on tested liver cells” value is recorded as “no effect”.
